# Tests used:
# [1] = system: primary human renal proximal tubule epithelial cells; assay: Cell cycle analysis (propidium iodide, flow cytometry); type: cell-based; details: 16 hours
# Experimental: (§1) Representative histograms of cell cycle analysis of Primary human renal proximal tubule epithelial cells treated with varying concentrations of PD0332991 for 16 hours. Cells were harvested, fixed, stained, and analyzed by flow cytometry. Data was fitted using Mod-Fit™ software from Verity (Verity Software House, Topsham, Me., United States of America).
# as §1, with “Cell” for “Representative histograms of cell”, “America). Corresponding % of cells in G1 (diamonds), G2/M (squares) and S (triangles) are shown on the graph.” for “America).”
# Primary normal human renal proximal epithelial cells (American Type Culture Collection (ATCC), Manassas, Va., United States of America) were cultured in renal epithelial cell basal media supplemented with renal epithelial cell growth kit according to the manufacturer's recommendations. […] For the γH2AX assay, cells were fixed, permeabilized, and stained with anti-γH2AX as per γH2AX Flow Kit (Millipore, Billerica, Mass., United States of America). γH2AX levels were assessed by flow cytometry. Cell proliferation was assessed by seeding 1×10^3 cells per well in a 96-well tissue culture plate in 100 μL of growth medium. […]
# [2] = system: primary human renal proximal tubule epithelial cells; assay: Cell proliferation, CellTiter-Glo, 72 hours; type: cell-based; details: 0, 10 nM-3 μM, 72 hours post exposure
# Experimental: FIG. 3: CDK4/6 inhibition blocks proliferation of primary human renal proximal tubule epithelial cells. Cells were treated with varying concentrations of PD0332991 for 72 hours. Following incubation, cell proliferation was quantified using CellTiter-Glo® (Promega, Madison, Wis., United States of America). Data represent the mean of four replicates (relative light units, RLU) +/−standard deviation.
# Primary normal human renal proximal epithelial cells (American Type Culture Collection (ATCC), Manassas, Va., United States of America) were cultured in renal epithelial cell basal media supplemented with renal epithelial cell growth kit according to the manufacturer's recommendations. […] For the γH2AX assay, cells were fixed, permeabilized, and stained with anti-γH2AX as per γH2AX Flow Kit (Millipore, Billerica, Mass., United States of America). γH2AX levels were assessed by flow cytometry. Cell proliferation was assessed by seeding 1×10^3 cells per well in a 96-well tissue culture plate in 100 μL of growth medium. […] At the end of the recovery period, cell number was quantified using CellTiter-Glo® (Promega, Fitchburg, Wis., United States of America) or WST-1 reagent (TaKaRa Bio USA, Madison, Wis., United States of America). […] 100 μL of TOXILIGHT™ reagent is added and incubated for 5 minutes and read in a luminometer at 1 second/well. […]
# [3] = system: mice treated with cisplatin; type: in vivo, mouse; details: single dose PD0332991 150 mg/kg oral gavage with cisplatin 15 mg/kg IP; 72 hours post treatment
# Experimental: FIG. 7: CDK4/6 inhibition protects kidney function in mice treated with cisplatin. Cohorts of mice were treated with cisplatin (10 mg/kg IP) alone (squares), PD0332991 (150 mg/kg PO) alone (diamonds) or immediately prior to cisplatin (10 mg/kg) (triangles). Kidney function was measured at day 7 by quantification of blood urea nitrogen (BUN) in mg/dL and serum creatinine (Serum Cr) in mg/dL. Data represents the mean of 6 animals per cohort +/−standard error of the mean.
# To determine if CDK4/6 inhibition around the time of DNA damage would protect renal function, mice were treated with cisplatin, a known causative agent of renal tubular damage in humans. Mice were treated with PD0332991 150 mg/kg or vehicle control by oral gavage and then received a single dose of cisplatin 15 mg/kg by IP injection. 72 hours post treatment mice were euthanized and blood was collected by cardiac puncture for BUN (blood urea nitrogen) and serum creatinine (SrCr) analysis. Serum BUN and SrCr are common markers of renal function and serum levels quickly elevated when kidney function has been acutely compromised.
# [4] = system: H417 small cell lung cancer cell line (intact RB); assay: SCLC cell proliferation, WST-1, RB-intact line; type: cell-based; details: 100 nM
# Experimental: FIG. 8: CDK4/6 inhibition potentiates proliferation of Rb deficient cells. […] Cell proliferation was assessed using WST-1 reagent. Each data point represents the mean of four replicates +/−SEM. CDK4/6 inhibition increases cell proliferation of RB-deficient cell lines.
# Primary normal human renal proximal epithelial cells (American Type Culture Collection (ATCC), Manassas, Va., United States of America) were cultured in renal epithelial cell basal media supplemented with renal epithelial cell growth kit according to the manufacturer's recommendations. […] For the γH2AX assay, cells were fixed, permeabilized, and stained with anti-γH2AX as per γH2AX Flow Kit (Millipore, Billerica, Mass., United States of America). γH2AX levels were assessed by flow cytometry. Cell proliferation was assessed by seeding 1×10^3 cells per well in a 96-well tissue culture plate in 100 μL of growth medium. […] At the end of the recovery period, cell number was quantified using CellTiter-Glo® (Promega, Fitchburg, Wis., United States of America) or WST-1 reagent (TaKaRa Bio USA, Madison, Wis., United States of America). Cellular cytotoxicity was assessed using the TOXILIGHT™ Bioassay kit (Lonza, Basel, Switzerland) which measures cytolysis by quantifying the release of Adenylate Kinase into the culture media. […] 100 μL of TOXILIGHT™ reagent is added and incubated for 5 minutes and read in a luminometer at 1 second/well. […]
structure (smiles),measurement,setting,value
"CC(=O)c1c(C)c2cnc(Nc3ccc(N4CCNCC4)cn3)nc2n(C2CCCC2)c1=O [PD0332991, 6-acetyl-8-cyclopentyl-5-methyl-2-(5-piperazin-1-yl-pyridin-2-ylamino)-8H-pyrido-[2,3-d]-pyrimidin-7-one]","cell cycle arrest (G0/G1, G2/M, S fractions)","[1]; 0, 10 nM-1 uM",induces a G1 arrest
same,cytotoxicity during G1 arrest,[1]; varying concentrations,without evidence of cytotoxicity
same,inhibition of cell proliferation vs DMSO control,[2],clear dose dependent inhibition of cell proliferation
same,protection of renal function (BUN and SrCr),[3],abrogate the cisplatin-induced nephrotoxicity
same,cell proliferation (WST-1) vs DMSO,[4],decreased

# Reference: patent US9616062B2, “Cyclin dependent kinase inhibitors and methods of use” (priority 2009, dated 2017)
